Inhibition and IC50 data for six compounds are collected here from ChEMBL document CHEMBL5154740, “Novel Aurora A and Protein Kinase C (α, β1, β2, and θ) Multitarget Inhibitors: Impact of Selenium Atoms on the Potency and Selectivity” (J Med Chem, 2022).

Experiment [1] deals with T1, Aurora kinase A (Homo sapiens) (UniProt O14965).
T1 sequence (whole entry): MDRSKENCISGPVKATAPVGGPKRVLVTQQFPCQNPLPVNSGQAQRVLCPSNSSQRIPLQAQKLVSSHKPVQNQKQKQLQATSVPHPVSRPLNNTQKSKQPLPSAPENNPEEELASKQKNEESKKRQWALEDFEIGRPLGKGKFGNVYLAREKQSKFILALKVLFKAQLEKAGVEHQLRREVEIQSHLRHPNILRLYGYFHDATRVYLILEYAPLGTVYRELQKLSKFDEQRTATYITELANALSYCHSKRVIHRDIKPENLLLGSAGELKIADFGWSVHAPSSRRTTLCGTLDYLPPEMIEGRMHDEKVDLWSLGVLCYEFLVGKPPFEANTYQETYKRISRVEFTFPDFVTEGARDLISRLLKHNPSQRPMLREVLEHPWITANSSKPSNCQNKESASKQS
Briefly: Inhibition of AURA (unknown origin) at 50 nM by Z'LYTE screening method relative to control.

Experiment [2] deals with T2, Protein kinase C theta type (Homo sapiens, UniProt Q04759). The experiment in a line: Inhibition of PKCtheta (unknown origin) at 50 nM by Z'LYTE screening method relative to control.
Target sequence in this assay (Q04759 whole entry, looked up): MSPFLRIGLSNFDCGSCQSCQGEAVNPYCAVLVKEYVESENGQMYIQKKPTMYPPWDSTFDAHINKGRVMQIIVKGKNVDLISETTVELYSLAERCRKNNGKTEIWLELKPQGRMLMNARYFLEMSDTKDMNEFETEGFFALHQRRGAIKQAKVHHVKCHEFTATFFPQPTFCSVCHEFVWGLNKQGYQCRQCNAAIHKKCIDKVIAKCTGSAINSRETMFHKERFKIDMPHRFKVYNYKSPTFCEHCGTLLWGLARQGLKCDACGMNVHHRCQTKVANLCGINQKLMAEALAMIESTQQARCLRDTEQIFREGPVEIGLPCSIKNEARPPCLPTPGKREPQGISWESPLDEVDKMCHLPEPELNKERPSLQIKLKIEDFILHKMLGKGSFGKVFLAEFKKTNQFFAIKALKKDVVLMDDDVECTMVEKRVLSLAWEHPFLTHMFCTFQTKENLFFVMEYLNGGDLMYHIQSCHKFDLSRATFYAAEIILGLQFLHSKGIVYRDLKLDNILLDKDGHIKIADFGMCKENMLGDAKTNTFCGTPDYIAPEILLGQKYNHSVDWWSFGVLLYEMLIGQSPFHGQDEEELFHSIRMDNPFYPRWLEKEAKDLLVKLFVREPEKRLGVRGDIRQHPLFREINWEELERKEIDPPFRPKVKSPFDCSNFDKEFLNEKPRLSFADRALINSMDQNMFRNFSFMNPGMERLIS
The test system of a further experiment is MDA-MB-231. Briefly: Cytotoxicity against human MDA-MB-231/M cells assessed as reduction in cell viability incubated for 96 hrs by MTT assay. The format is functional, cell-based. The following applies: MDA-MB-231, 96 h.
For experiment [3], the target named is Protein kinase C beta type (Homo sapiens) (UniProt P05771). Briefly: Inhibition of PKCbeta2 (unknown origin) at 50 nM by Z'LYTE screening method relative to control.
The target in experiment [4] is Protein kinase C alpha type (Homo sapiens) (UniProt P17252). Briefly: Inhibition of PKCalpha (unknown origin) at 50 nM by Z'LYTE screening method relative to control.
For the next experiment, the system named is 4T1. The experiment in a line: Cytotoxicity against mouse 4T1 cells assessed as reduction in cell viability incubated for 96 hrs by MTT assay. The class given is functional, cell-based. The note with it: 4T1, 96 h.
Experiment [5] deals with Aurora kinase B (Homo sapiens) (UniProt Q96GD4). Briefly: Inhibition of AURB (unknown origin) at 50 nM by Z'LYTE screening method relative to control.
Experiment [6] deals with Protein kinase C beta type (Homo sapiens) (UniProt P05771). The experiment in a line: Inhibition of PKCbeta1 (unknown origin) at 50 nM by Z'LYTE screening method relative to control.
The target of experiment [7] is Protein kinase C eta type (Homo sapiens, UniProt P24723). Briefly: Inhibition of PKCeta (unknown origin) by IMAP kinase assay.
The target in another experiment is Aurora kinase C (Homo sapiens, UniProt Q9UQB9). Briefly: Inhibition of AURC (unknown origin).
Experiment [8] deals with Protein kinase C alpha type (Homo sapiens) (UniProt P17252). The experiment in a line: Inhibition of PKCalpha (unknown origin) by Z'LYTE screening method relative to control. The note with it: concentration not given here.
For experiment [9], the target named is T3, Serine/threonine-protein kinase D1 (Homo sapiens) (UniProt Q15139).
T3 sequence (whole entry): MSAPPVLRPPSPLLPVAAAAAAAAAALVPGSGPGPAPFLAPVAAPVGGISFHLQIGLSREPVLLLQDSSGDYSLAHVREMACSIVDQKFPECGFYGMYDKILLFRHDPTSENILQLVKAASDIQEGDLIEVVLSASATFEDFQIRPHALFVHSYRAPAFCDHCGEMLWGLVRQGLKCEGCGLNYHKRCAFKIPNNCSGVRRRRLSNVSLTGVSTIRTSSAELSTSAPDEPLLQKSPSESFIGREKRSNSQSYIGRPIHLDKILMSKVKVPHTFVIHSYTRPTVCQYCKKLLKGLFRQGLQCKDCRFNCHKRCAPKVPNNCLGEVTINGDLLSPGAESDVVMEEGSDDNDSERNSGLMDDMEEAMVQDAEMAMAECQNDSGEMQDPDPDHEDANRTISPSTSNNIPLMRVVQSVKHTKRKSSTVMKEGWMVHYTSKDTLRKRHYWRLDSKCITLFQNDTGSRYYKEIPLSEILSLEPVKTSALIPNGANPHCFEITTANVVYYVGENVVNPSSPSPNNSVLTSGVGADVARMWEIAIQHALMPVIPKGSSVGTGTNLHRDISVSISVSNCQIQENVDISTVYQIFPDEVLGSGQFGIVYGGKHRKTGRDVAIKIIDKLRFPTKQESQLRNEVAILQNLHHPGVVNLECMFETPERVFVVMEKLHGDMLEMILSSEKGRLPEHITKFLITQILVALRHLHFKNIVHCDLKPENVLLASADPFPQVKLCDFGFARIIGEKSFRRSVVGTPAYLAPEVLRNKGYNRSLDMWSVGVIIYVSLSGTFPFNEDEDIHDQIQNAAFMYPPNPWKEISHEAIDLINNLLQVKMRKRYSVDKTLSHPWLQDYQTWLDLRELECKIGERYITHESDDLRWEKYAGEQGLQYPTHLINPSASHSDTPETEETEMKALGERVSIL
The experiment in a line: Inhibition of PKCmu (unknown origin) by Z'LYTE screening method relative to control. The note with it: concentration not given here.

The target of experiment [10] is T4, Protein kinase C zeta type (Homo sapiens) (UniProt Q05513).
T4 sequence (whole entry): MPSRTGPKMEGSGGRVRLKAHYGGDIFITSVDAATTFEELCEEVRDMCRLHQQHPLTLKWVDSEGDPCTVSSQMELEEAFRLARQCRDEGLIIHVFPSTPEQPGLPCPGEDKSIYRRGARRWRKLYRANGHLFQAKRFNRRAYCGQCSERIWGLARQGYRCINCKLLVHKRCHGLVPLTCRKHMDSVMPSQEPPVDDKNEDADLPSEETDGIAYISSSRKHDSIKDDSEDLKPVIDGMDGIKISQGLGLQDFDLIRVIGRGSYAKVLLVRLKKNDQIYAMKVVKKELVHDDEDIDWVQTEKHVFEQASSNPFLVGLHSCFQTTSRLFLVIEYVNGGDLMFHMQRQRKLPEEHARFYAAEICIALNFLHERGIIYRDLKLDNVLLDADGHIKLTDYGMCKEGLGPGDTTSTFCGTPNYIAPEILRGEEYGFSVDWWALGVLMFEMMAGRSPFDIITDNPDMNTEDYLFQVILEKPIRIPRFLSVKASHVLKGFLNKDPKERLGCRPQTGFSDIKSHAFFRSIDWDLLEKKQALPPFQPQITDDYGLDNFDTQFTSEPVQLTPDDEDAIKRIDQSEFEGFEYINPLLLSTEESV
Briefly: Inhibition of PKCzeta (unknown origin) by Z'LYTE screening method relative to control. The note with it: concentration not given here.

In experiment [11] the target is Protein kinase C beta type (Homo sapiens) (UniProt P05771). Briefly: Inhibition of PKCbeta2 (unknown origin) by Z'LYTE screening method relative to control. The following applies: concentration not given here.
Experiment [12] addresses Serine/threonine-protein kinase D3 (Homo sapiens, UniProt O94806). The experiment in a line: Inhibition of PKCnu (unknown origin) by IMAP kinase assay.
Experiment [13] concerns the target T2, Protein kinase C theta type. The experiment in a line: Inhibition of full length human PKCtheta using 5-FAM-RFARKGSLRQKNV-OH peptide substrate incubated for 30 mins by IMAP kinase assay.
Target sequence in this assay (Q04759 whole entry): as the sequence (Q04759 whole entry, looked up) above
The target of experiment [14] is Protein kinase C beta type (Homo sapiens) (UniProt P05771). Briefly: Inhibition of PKCbeta1 (unknown origin) by Z'LYTE screening method relative to control. The note with it: concentration not given here.
In experiment [15] the target is T5, Serine/threonine-protein kinase D3 (Homo sapiens) (UniProt O94806).
T5 sequence (whole entry): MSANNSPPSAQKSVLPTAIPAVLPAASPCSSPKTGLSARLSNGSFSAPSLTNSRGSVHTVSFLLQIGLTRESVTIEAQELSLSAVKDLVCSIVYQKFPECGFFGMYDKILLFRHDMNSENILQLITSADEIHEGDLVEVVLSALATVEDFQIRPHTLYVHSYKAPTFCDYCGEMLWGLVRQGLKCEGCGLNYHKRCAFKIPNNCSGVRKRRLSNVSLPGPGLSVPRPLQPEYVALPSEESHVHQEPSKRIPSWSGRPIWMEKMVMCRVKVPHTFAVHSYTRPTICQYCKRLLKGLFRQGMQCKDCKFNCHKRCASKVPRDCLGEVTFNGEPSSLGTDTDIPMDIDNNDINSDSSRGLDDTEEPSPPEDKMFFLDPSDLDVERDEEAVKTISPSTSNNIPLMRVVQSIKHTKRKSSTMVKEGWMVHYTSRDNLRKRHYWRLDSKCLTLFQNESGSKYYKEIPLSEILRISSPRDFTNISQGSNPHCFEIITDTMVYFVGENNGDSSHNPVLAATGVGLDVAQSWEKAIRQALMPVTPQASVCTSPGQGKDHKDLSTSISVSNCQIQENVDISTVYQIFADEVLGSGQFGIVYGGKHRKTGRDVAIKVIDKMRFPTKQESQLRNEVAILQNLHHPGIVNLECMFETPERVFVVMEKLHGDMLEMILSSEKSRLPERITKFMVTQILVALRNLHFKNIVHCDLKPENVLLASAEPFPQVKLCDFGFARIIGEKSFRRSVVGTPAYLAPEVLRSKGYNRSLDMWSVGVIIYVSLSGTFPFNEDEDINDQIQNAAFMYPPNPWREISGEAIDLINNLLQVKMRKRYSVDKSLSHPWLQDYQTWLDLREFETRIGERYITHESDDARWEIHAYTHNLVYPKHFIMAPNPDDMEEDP
The experiment in a line: Inhibition of PKCnu (unknown origin) by Z'LYTE screening method relative to control. The note with it: concentration not given here.

Experiment [16] concerns the target Protein kinase C epsilon type (Homo sapiens, UniProt Q02156). The experiment in a line: Inhibition of PKCepsilon (unknown origin) by IMAP kinase assay.
The target of experiment [17] is T6, Protein kinase C epsilon type (Homo sapiens) (UniProt Q02156).
T6 sequence (whole entry): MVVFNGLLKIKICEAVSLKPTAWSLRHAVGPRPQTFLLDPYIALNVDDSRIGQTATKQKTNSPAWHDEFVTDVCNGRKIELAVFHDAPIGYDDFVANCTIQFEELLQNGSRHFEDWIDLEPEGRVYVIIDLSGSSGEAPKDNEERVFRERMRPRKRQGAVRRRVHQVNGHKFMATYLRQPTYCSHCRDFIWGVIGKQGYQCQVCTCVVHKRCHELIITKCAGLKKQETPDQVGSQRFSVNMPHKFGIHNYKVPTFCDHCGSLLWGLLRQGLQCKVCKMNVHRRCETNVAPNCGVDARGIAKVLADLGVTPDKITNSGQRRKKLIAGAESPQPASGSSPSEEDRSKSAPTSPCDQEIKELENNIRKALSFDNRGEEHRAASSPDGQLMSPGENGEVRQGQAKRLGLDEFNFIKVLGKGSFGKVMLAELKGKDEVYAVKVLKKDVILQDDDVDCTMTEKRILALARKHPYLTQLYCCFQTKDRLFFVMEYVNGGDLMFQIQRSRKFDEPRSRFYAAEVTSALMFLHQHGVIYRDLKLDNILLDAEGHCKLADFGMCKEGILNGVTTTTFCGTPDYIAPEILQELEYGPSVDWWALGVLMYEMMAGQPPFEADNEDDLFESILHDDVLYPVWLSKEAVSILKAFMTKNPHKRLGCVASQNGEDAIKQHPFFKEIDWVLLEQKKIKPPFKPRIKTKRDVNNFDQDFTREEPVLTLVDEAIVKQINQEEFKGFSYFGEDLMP
The experiment in a line: Inhibition of PKCepsilon (unknown origin) by Z'LYTE screening method relative to control. The following applies: concentration not given here.

The target of experiment [18] is Proto-oncogene tyrosine-protein kinase receptor Ret (Homo sapiens) (UniProt P07949). Briefly: Inhibition of RET (unknown origin) by Z'LYTE screening method relative to control. The note with it: concentration not given here.

The structures appear in SMILES notation.

Chain of Protein kinase C beta type (Homo sapiens) (P05771 2-671 limits assumed): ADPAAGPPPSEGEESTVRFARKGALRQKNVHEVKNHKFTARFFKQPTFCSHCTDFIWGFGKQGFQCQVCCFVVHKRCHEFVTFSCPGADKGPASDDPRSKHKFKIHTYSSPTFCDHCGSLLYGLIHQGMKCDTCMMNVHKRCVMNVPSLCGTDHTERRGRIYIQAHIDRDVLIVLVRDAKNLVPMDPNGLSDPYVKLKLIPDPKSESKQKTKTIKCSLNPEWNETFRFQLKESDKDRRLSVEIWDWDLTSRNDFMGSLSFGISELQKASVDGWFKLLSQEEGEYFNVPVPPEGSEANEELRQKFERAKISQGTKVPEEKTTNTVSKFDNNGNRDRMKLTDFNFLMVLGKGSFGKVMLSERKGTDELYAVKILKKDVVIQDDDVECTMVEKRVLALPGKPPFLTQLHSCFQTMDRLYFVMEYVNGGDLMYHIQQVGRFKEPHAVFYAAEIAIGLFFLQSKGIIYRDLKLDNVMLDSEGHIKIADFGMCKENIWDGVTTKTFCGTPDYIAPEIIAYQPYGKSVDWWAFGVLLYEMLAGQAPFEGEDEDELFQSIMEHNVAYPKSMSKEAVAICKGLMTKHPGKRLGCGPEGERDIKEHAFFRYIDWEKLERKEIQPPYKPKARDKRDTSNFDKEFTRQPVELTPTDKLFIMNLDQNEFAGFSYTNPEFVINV
Chain of Aurora kinase B (Homo sapiens) (Q96GD4 whole entry): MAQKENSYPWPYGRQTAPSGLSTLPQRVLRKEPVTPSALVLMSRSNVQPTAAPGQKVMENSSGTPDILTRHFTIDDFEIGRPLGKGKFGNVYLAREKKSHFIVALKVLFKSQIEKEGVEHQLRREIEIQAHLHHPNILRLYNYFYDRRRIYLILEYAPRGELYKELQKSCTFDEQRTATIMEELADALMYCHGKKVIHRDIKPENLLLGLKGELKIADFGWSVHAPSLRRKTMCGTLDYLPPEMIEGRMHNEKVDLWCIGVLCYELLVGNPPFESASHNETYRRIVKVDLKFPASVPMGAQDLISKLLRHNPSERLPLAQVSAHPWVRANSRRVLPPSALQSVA
Chain of Proto-oncogene tyrosine-protein kinase receptor Ret (Homo sapiens) (P07949 whole entry): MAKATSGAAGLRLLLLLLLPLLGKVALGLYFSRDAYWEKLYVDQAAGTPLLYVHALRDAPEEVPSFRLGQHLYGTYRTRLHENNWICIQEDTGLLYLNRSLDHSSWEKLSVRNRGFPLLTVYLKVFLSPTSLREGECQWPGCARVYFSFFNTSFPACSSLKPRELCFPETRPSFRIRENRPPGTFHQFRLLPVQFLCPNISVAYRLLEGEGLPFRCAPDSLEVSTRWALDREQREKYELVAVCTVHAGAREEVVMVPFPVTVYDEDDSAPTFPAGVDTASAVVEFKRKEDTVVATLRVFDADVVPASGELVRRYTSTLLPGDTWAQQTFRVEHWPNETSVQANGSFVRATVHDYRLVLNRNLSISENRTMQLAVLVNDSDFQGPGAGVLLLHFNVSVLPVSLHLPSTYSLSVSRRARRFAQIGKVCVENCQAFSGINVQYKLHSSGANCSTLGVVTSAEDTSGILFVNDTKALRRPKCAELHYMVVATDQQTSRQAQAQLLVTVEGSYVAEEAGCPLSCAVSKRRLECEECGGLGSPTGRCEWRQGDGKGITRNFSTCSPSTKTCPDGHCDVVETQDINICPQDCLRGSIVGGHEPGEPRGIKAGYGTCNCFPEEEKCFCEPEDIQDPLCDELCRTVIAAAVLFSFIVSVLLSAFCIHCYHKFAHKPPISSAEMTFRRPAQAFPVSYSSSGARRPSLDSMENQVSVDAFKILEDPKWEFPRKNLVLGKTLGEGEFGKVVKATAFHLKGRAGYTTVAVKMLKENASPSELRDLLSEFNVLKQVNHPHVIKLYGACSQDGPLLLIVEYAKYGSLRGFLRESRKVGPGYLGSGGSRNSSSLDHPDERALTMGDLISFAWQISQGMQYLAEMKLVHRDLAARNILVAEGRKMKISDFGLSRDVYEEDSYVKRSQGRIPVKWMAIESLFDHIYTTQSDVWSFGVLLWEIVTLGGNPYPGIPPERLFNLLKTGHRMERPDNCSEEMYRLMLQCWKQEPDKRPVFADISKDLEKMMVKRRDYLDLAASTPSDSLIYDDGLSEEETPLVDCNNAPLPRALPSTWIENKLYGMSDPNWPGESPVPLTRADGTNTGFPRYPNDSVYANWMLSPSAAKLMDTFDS
Chain of Aurora kinase C (Q9UQB9 whole entry): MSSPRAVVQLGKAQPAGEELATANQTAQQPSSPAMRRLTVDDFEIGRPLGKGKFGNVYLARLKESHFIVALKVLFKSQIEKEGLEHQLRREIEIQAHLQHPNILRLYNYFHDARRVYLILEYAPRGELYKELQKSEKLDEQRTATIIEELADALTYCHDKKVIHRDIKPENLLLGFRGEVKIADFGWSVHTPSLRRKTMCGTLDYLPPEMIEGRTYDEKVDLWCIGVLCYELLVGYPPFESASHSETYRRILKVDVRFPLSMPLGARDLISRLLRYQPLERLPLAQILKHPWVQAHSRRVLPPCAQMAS
Chain of Protein kinase C eta type (P24723 whole entry): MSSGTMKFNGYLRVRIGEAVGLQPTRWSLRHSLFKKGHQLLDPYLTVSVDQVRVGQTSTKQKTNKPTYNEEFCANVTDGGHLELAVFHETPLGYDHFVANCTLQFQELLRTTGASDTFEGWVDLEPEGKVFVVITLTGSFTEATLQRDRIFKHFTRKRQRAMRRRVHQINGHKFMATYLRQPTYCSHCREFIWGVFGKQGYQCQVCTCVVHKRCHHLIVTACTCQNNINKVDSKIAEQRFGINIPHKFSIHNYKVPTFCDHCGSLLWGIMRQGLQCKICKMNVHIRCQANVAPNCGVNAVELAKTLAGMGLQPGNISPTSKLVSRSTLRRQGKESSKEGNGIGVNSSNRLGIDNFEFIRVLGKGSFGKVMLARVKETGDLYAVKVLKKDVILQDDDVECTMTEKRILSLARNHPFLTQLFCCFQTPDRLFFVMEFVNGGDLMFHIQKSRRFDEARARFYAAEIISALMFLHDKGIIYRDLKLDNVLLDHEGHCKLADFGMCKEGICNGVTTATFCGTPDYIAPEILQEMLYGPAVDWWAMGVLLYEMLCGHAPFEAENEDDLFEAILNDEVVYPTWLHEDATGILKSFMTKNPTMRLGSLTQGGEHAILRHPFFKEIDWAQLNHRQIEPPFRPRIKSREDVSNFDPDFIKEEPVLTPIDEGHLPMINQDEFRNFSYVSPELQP

For `O=c1c2ccccc2sn1-c1nc(NC2CCCC2)c2nc[nH]c2n1`, the inhibition (usually the percentage by which the read-out fell short of the control) in [1] stood at 58%; in experiment [2] it was 60%; in experiment [3], 13%; in [4], 65%; in experiment [5] it was 7%; in [6] it was 40%. In addition, the IC50 (commonly the concentration that inhibits the measured activity by half) in the experiment with MDA-MB-231 was 29200 nM; with 4T1, 25600 nM.
On to `O=C(N[C@@H]1CNCCC[C@H]1OC(=O)c1cc(O)c(C(=O)c2c(O)cccc2C(=O)O)c(O)c1)c1ccc(O)cc1` [BALANOL], for which, in experiment [7], the concentration for half-maximal inhibition (IC50) was 4 nM.
`O=c1c2ccccc2sn1-c1nc(NC2CCSC2)c2nc[nH]c2n1` (configuration not stated): the inhibition in experiment [1] worked out at 69%; in [2] it was 97%; in experiment [3], 81%; in experiment [4], 92%; in [5] it was 7%; in experiment [6], 85%. Also, the IC50 worked out at 10300 nM with MDA-MB-231 and 12200 nM in the experiment on 4T1.
`O=C(Nc1cccc(Cl)c1)Nc1ncc(CCNc2ncnc3ccsc23)s1` [SNS-314]: the concentration for half-maximal inhibition (IC50) at Aurora kinase C came out at 3 nM.
In the case of `CN1CCN(c2nc(C3=C(c4c[nH]c5ccccc45)C(=O)NC3=O)c3ccccc3n2)CC1` [SOTRASTAURIN], the inhibition in experiment [8] came out at 100%; in experiment [9], 92%; in [10] it was 80%; in experiment [11], 98%; in experiment [14] it was 98%; in experiment [15] it was 76%. This compound also registered an inhibition in experiment [17] of 76%. In addition, the half-inhibitory concentration (IC50) was 2.1 nM in experiment [12], 0.22 nM in experiment [13] and 3.2 nM in [16].
On to `Cc1cc(Nc2cc(N3CCN(C)CC3)nc(Sc3ccc(NC(=O)C4CC4)cc3)n2)n[nH]1`, for which the inhibition stood at 8% in experiment [8], 2% in [11], 62% in experiment [18] and 6% in experiment [14].
